Where “and” joins values, the source holds several entries; their conditions need not be identical. Equal values may be shown once.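 Values below derive from 48-hour exposures of cells grown in 96-well plates, with endpoints linearly interpolated between the two concentrations bracketing the appropriate inhibition level. GI50 = concentration required for 50% inhibition of growth. The concentration for full growth arrest is given as TGI.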
Columns and labels:
Test in all cases: growth of human tumour cells (NCI), 48 h
[1] = system: HCC-2998 colon
[2] = system: MDA-MB-231 breast
[3] = system: OVCAR-5 ovarian
[4] = system: UACC-62 melanoma
[5] = system: NCI-H23 lung
[6] = system: HL-60(TB) leukemia
[7] = system: 786-0 renal
[8] = system: LOX IMVI melanoma
[9] = system: SK-MEL-28 melanoma
[10] = system: UO-31 renal

SMILES	GI50 [1] [µM]	TGI [1]	GI50 [2] [µM]	TGI [2]	GI50 [3] [µM]	TGI [3]	GI50 [4] [µM]	TGI [4]	GI50 [5] [µM]	TGI [5]	GI50 [6]	TGI [6]	GI50 [7] [µM]	TGI [7]	GI50 [8] [µM]	TGI [8]	GI50 [9] [µM]	TGI [9]	GI50 [10] [µM]	TGI [10]
Cc1ccc(F)cc1NC(=O)c1cc(Cl)ccc1Nc1ccccc1	> 100	> 100 µM	6.96	> 100 µM	> 100	> 100 µM	> 100	> 100 µM	> 100	> 100 µM	> 100 µM	> 100 µM	52.1	> 100 µM	> 100	> 100 µM	> 100	> 100 µM	> 100	> 100 µM
COc1ccc(C(=O)CC(c2ccc(OC)c(OC)c2)c2c(O)c3ccccc3oc2=O)cc1OC (centres undefined)	–	> 100 µM	–	> 100 µM	–	> 100 µM	–	> 100 µM	–	> 100 µM	–	> 100 µM	–	> 100 µM	–	> 100 µM	–	> 100 µM	–	> 100 µM
Cc1ccccc1C(C(=O)NC1CCCCC1)N(C(=O)Cn1ccnc1C)c1cccc(F)c1 (centres undefined)	> 100	> 100 µM	35.8	> 100 µM	> 100	> 100 µM	59.3	> 100 µM	> 58	> 100 µM	> 100 µM	> 100 µM	37.2	> 100 µM	44	> 100 µM	> 100	> 100 µM	> 51.6	> 100 µM
O=C(/C=C\c1ccc2ccccc2n1)c1cc(Cl)ccc1O	14.6	28.3 µM	5.18	24.3 µM	14.3	30.5 µM	7.51	21 µM	5.9	19.7 µM	3.32 µM	11.3 µM	4.28	14.6 µM	2.84	11.7 µM	18.7	49.6 µM	4.33	17.8 µM
CCC(=O)c1ccc2c(c1)N(CCCN1CCN(CCO)CC1)c1ccccc1S2	11.8	26.1 µM	13.1	27.4 µM	15.7	31.9 µM	2.2	4.73 µM	15.9	31.4 µM	12.7 µM	30.3 µM	13.2	26.9 µM	11.1	26.5 µM	2.75	7.75 µM	7.82	21.6 µM
O=C(NC1(C(=O)O)CC1c1ccccc1)c1ccccc1 (centres undefined)	–	> 100 µM	–	> 100 µM	–	> 100 µM	–	> 100 µM	–	> 100 µM	–	> 100 µM	–	> 100 µM	–	> 100 µM	–	> 100 µM	–	> 100 µM
Cc1cc2nc3c4cccc(O)c4n(CCN(C)C)c3nc2cc1C	1.46	2.99 µM	2.04	5.63 µM	2.97	9.1 µM	1.73	3.73 µM	3.07	16 µM	1.57 µM	4.13 µM	3.88	21.1 µM	1.24	2.6 µM	1.78	3.34 µM	0.86	3.28 µM
CO/C(=N\N=C\c1cccc(C(F)(F)F)c1)c1ccncc1	–	22.5 µM	10.8	> 100 µM	–	> 100 µM	–	> 100 µM	–	42.6 µM	2.45 µM	7.77 µM and 18 µM	8.71	24.8 µM	10.2	> 100 µM	–	> 100 µM	6.09	40.8 µM
CN(C)CCNC(=O)c1nc([N+](=O)[O-])cn1C	–	> 100 µM	–	> 100 µM	–	> 100 µM	–	> 100 µM	–	> 100 µM	–	> 100 µM	–	> 100 µM	–	> 100 µM	–	> 100 µM	–	> 100 µM
Cc1ccc(C[P+](c2ccccc2)(c2ccccc2)c2ccccc2)cc1	0.441	6.41 µM	2.54	29.3 µM	1.93	> 25.2 µM	0.907	14.1 µM	0.554	5.46 µM	0.455 µM	3.36 µM	1.71	8.02 µM	1.07	4.24 µM	0.987	10.6 µM	6.08	39.4 µM
Oc1cc(Cl)ccc1Cc1ccc(Cl)cc1O	14.6	27.7 µM	11.6	36.3 µM	15.1	31.8 µM	4.9	16.3 µM	3.21	12.6 µM	9.67 µM	> 100 µM	18.4	38 µM	5.84	18.2 µM	8.26	20.7 µM	4.89	20.1 µM
COc1cc(-c2n/c(=C\c3c(O)[nH]c4ccccc34)cc3c2=Nc2ccccc2-3)cc(OC)c1OC	2.32	6.48 µM	2.11	> 28.2 µM	4.32	> 100 µM	0.707	> 100 µM	0.39	> 100 µM	2.16 µM	5.03 µM	0.864	31.7 µM	0.552	> 100 µM	6.43	> 100 µM	2.5	> 100 µM
Cc1cc(NC(=O)NC(=O)c2ccccc2NC(=O)CN)ccc1Oc1ncc(Br)cn1	0.354	18 µM and 2.68 µM	–	5.17 µM and 14 µM	0.541	43.6 µM and 75.2 µM	0.112	19.8 µM and 15.4 µM	0.331	15.5 µM and 13.8 µM	0.111 µM and 0.0249 µM	0.865 µM and 0.175 µM	0.4	24.2 µM and 17.8 µM	0.624	34.1 µM and > 100 µM	0.0822	41.2 µM and > 100 µM	2.1	50.1 µM and > 100 µM
C=C(C)[C@@H]1CC[C@]2(C(=O)NCCNCCNCCN)CC[C@]3(C)[C@H](CC[C@@H]4[C@@]5(C)CCC(=O)C(C)(C)[C@@H]5CC[C@]43C)[C@@H]12	7.16	14.8 µM	8.04	15.8 µM	8.78	18.4 µM	8.96	19.1 µM	9.14	17.4 µM	8.88 µM	19 µM	7.8	15.8 µM	8.72	16.6 µM	8.5	17 µM	6.85	14.5 µM

Source: PubChem BioAssay (NCI)
